Test results as given in patent US8188063B2, “Use of adenosine A2A modulators to treat spinal cord injury” (University of Virginia Patent Foundation, priority 2006, dated 2012).
Entries after “also recorded” stand apart in the source; their conditions may differ. Blank lines part the entries; values can stand above or below the compound they belong to.

What was measured:
[1] = target: T1, recombinant mouse A3 receptors (Mus musculus, UniProt Q61618); assay: Radioligand competition binding to recombinant mouse A3 receptor (HEK293 membranes); details: high affinity conformational state, means ± SEM, at least six experiments, read-out: Binding affinity (Ki) A3R
T1 construct: expressed in transfected cells
T1 sequence (Q61618 1-319): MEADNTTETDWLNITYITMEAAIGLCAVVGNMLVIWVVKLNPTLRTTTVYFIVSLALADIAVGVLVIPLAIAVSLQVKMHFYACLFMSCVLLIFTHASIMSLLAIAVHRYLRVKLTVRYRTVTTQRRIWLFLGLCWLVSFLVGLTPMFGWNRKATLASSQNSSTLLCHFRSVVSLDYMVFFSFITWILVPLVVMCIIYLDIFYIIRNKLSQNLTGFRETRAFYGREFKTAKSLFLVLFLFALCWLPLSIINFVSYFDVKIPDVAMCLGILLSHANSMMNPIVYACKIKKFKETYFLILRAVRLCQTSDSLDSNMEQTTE
Protocol: Membranes from HEK293 cells stably expressing recombinant mouse A2ARs or A3Rs were used for competition binding assays with [^125I]N6-4-amino-3-iodobenzyladenosine for the A3AR or [^125I]2-[2-(4-amino-3-iodophenyl)ethylamino]adenosine for the A2AR as described previously (Lappas et al., 2005a). Radioligand binding experiments were performed with 25 μg of HEK293 cell membrane protein in a total volume of 0,1 ml of 10 MM HEPES with 1 mM EDTA (pH 7.4) supplemented with 2 Unit/ml adenosine deaminase and 5 mM MgCl2. Nonspecific binding was measured in the presence of 100 μM NECA. The incubation time was 120 min at room temperature. Membranes were filtered on Millipore MultiScreen 96-well filtration plates and washed three times with ice-cold buffer (10 mM Tris, 1 mM MgCl2, pH 7,4) using a Brandel 96-well plate washer. The data were fit to a four-parameter logistic equation. IC50 values were determined using GraphPad Prism, and Ki values calculated (Linden, 1982).
. It is important to note that unlike human receptors, in the mouse, the selectivity of all of these agonist compounds for the A2A over the A3 receptor is limited, and the administration of these compounds to mice is expected to produce some degree of A3 receptor activation. […]. Activation of the A3 receptor may exacerbate inflammation by enhancing the degranulation of rodent mast cells (Jin et al., 1997; Ramkumar et al., 1993, Reeves et al., 1997); although tissue protection by A3 receptor activation also has been noted (Rivo et al., 2004). […]

[2] = target: T2, recombinant mouse A2A receptors (Mus musculus, UniProt Q60613); assay: Radioligand competition binding to recombinant mouse A2A receptor (HEK293 membranes); details: for Ki: high affinity conformational state, recombinant mouse A2A receptor, means ± SEM, at least six experiments, read-out: Binding affinity (Ki) A2AR; for A3/A2A: ratio of Ki at mouse A3R to Ki at mouse A2AR
T2 construct: expressed in transfected cells
Protocol: Nonspecific binding was measured in the presence of 100 μM NECA. The incubation time was 120 min at room temperature. Membranes were filtered on Millipore MultiScreen 96-well filtration plates and washed three times with ice-cold buffer (10 mM Tris, 1 mM MgCl2, pH 7,4) using a Brandel 96-well plate washer. The data were fit to a four-parameter logistic equation.

[3] = test system: contusive spinal cord injury, locomotor function; assay: Contusive spinal cord injury, locomotor assessment (mouse BBB); details: FIG. 13; for protection from contusive injury in Rag1 KO mice compared to Rag1 KO vehicle: Rag1 KO mice lacking mature lymphocytes
Text: Female C57BL/6 wild type and Rag-1 KO mice lacking mature lymphocytes between 6-18 weeks of age were purchased from Jackson Laboratory (Bar Harbor, Me.). Adenosine 2A receptor gene deletion (A2AAR −/−, A2AAR knockout) mice were age-matched to their wild types with same genomic background (C57BL/6). Food and water were provided ad libitum before and after experiments. During the experiment period, animals were housed in a pathogen-free isolation barrier region with chip bedding.
Animals were subjected to comtusive spinal cord injury protocol. Briefly, mice were anesthetized with a mixture of ketamine and xylazine and placed on a heating pad in a stereotaxic apparatus. A laminectomy was performed at T12 and two adjustable forceps were applied to the vertebra between T11 to T13 to stabilize the spinal cord. Contusive spinal cord injury (SCI) was produced with an IH device (PSI, Lexington, Ky.) at a defined force from 30 to 100 Kdynes with a dwell time of 30 msec or 60 sec. […] Injured mice were assessed on days 1, 2, 3, 4, 7, 10, 14, 21, 28, 35, and 42 after injury. Sham animals (n=10) received a laminectomy without spinal cord compression. Following SCI, bladders were expressed twice daily until return of normal reflexive bladder function.
Statistical tests were performed using GraphPad™ Prism version 5 software (GraphPad Software, Inc., San Diego, Calif.). Differences in locomotor scores between groups was analyzed by two-way analysis of variance (ANOVA) employing Bonferroni post-tests for repeated measure comparisons. A P value <0.05 was considered to be significant.

[4] = target: recombinant human A2A receptors (Homo sapiens, UniProt P29274); details: recombinant human receptors (Rieger et al., 2001); cited from earlier work
[5] = test system: spinal cord white matter / myelin after compression injury; assay: Spinal cord histology and myelin quantification after compression injury; assay type: in vivo, mouse
Protocol: A section of spine between T10 and L1 was removed under anesthesia. The tissue was placed in 4.0% paraformaldehyde in phosphate buffered saline, pH 7.4, and rocked for 4 hours. The disc body, lamina, pedicle, spinous and transverse processes surrounding the cord were carefully removed and the cord trimmed to center the injured area in a 10 mm segment. After incubation at 4° C. overnight, tissues were washed in Dulbecco's phosphate buffered saline (PBS, pH 7.4) twice for 10 minutes, and transferred to cassettes in 70% ethanol for paraffin embedding. Five μm sections were collected at 500 μm intervals using a Leica RM2030 Rotary Microtome. Sections derived from the center of the 2 mm compression zone were stained with hematoxylin & eosin (HE) and eriochrome cyanine (EC) as described below. Slides were examined using an Olympus BX51 light microscope and photographed using an Olympus DP70 digital camera (4080×3072 pixels) with DP70-BSW-V1.2 Capture & Archiving Software.
Hematoxylin & Eosin (HE) Staining. Sections were deparaffinized at 37° C. twice each for 5 minutes in xylene, 100% ethanol, and 95% ethanol, then once for 5 minutes in 70% ethanol and twice for 5 minutes in dH2O. Slides were stained in filtered hematoxylin for 60 seconds and washed in tap water for 3 minutes, stained in Eosin Y for 30 seconds and washed in tap water for 3 minutes. After the slide was dehydrated to xylene, a coverslip was applied.
Eriochrome Cyanine (EC) Staining. The protocol for staining myelin was obtained from the NINDS Spinal Cord Injury Training Course 2004 (The Ohio State University, Columbus, Ohio) and used with minor modifications. […]
Spinal Cord Cross Sectional Area and Myelin Quantification. Total cross-sectional area was measured to determine the extent of spinal cord atrophy, Cross-sectional area stained with EC was calculated by image analysis to evaluate damage of the sagittal myelinated tracts. […] The loss in white matter of each sample was calculated as % of total area stained in respective areas of control samples.

[6] = test system: spinal cord compression injury in bone marrow chimera mice; assay: Spinal cord compression injury in bone marrow chimera and A2AR KO mice, locomotor assessment; assay type: in vivo, mouse
Protocol: Female mice 7-9 weeks of age were irradiated twice with 600 Rads separated by 4 hours. Bone marrow donor mice 12 weeks of age were sacrificed by a lethal injection of sodium pentobarbital. Bone marrow cells were harvested from femurs and tibia by flushing with RPMI-1640 medium (Invitrogen Corporation, Grand Island, N.Y.) in the presence of 10% heat-inhibited fetal bovine serum (FBS). Connective tissue and debris were carefully removed by washing and centrifuging. Red blood cells were lysed by 1× ZAP-OGLOBIN® II lytic Reagent (Beckman Coulter, Miami, Fla.). Recipient mice were anesthetized intraperitoneally with a mixture of 100 mg/ml ketamine and 20 mg/ml xylazine in saline solution. An aliquot of approximately 2×10^6 cells in 200 μl RPMI-1640 with 10% FBS was injected intravenously through left or right jugular vein. BMT mice were used for experiments after 6 weeks. We have previously shown that this procedure results in efficient repopulation of BMDC cells to irradiated mice (Day et al., 2005).

[7] = test system: spinal cord compression injury, locomotor function; assay: Spinal cord compression injury, locomotor assessment (mBBB); details: for locomotor function (mBBB score) after spinal cord compression: wild type mice, IP from 5 min before compression, twice daily 4 days, days 1-42, FIG. 2
Protocol: Briefly, mice were anesthetized with a mixture of ketamine and xylazine and placed on a heating pad in a stereotaxic apparatus. A laminectomy was performed at T12 and two adjustable forceps were applied to the vertebra between T11 to T13 to stabilize the spinal cord. Ischemic injury was produced by gently placing a 15 gram compression rod with 1 mm×2 mm rectangular surface onto the intact durra for 5 minutes. […] Injured mice were assessed on post-SCI days 1, 4, 7, 14, 28, and 42. Sham animals received a laminectomy without spinal cord compression. Following SCI, bladders were expressed twice daily until return of normal bladder function.
Animals that were able to walk and scored greater than 14 based on rat BBB scoring criteria were further evaluated based on their ability to traverse steel bars without slipping. Mice were placed on bars 500 mm in length and 3 mm in thickness with decreasing widths: 20 mm (score 16), 15 mm (score 17), 10 mm (score 18), 7 mm (score 19), and 5 mm (score 20). […] Scores obtained from left and right hind limbs were averaged.
Statistical Analysis: Statistical analyses were conducted using SAS version 9.1 (SAS Institute Inc, Cary, N.C.). A mixed model (SAS Proc Mixed) was applied to determine the effect of drug treatment over time. Both the experimental condition (mouse genotype and/or drug) and the day were set as categorical variables. An autoregressive correlation structure was assumed for repeated measures in the entire study.

T2 sequence (Q60613 whole entry): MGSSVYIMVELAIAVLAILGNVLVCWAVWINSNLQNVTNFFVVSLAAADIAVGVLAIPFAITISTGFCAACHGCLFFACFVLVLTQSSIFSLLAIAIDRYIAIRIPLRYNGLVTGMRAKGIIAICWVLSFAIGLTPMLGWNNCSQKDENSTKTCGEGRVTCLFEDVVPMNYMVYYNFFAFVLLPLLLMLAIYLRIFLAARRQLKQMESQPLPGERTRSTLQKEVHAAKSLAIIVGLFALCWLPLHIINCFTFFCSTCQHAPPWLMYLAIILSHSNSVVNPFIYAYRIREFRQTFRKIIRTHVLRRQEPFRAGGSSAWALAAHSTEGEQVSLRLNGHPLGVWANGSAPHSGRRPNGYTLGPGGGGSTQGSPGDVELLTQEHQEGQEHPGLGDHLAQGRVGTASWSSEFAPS
recombinant human A2A receptors, sequence (P29274 whole entry): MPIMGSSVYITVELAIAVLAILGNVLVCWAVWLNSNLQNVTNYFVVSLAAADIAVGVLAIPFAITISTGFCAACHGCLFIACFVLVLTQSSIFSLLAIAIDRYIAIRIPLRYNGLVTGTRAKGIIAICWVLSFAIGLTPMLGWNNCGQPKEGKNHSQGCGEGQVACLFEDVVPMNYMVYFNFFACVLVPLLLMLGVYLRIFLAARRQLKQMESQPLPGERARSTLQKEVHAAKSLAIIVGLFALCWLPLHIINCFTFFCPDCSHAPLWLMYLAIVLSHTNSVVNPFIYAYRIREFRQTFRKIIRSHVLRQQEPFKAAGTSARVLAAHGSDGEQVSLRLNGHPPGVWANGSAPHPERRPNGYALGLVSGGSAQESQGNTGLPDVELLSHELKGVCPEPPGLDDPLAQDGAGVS

Ki [1]: 3.3 ± 2 nM
Structure (SMILES): CCNC(=O)C1OC(n2cnc3c(N)nc(C#CCC4CCC(C(=O)OC)CC4)nc32)C(O)C1O (stereo not drawn) [ATL146e, 4-{3-[6-Amino-9-(5-ethylcarbamoyl-3,4-dihydroxy-tetrahydro-furan-2-yl)-9H-purin-2-yl]-prop-2-ynyl}cyclo-hexanecarboxylic acid methyl ester]

Ki [2]: 1.5 ± 0.55 nM
Ki [1]: 3.7 ± 0.4 nM
Structure (SMILES): CCNC(=O)[C@H]1O[C@@H](n2cnc3c(N)nc(C#CCC4CCN(C(=O)OC)CC4)nc32)[C@H](O)[C@@H]1O [ATL202, 4-{3-[6-amino-9-(5-ethyl-carbamoyl-3,4-dihydroxy-tetrahydro-furan-2-yl)-9H-purin-2-yl]-prop-2-ynyl}-piperidine-1-carboxylic acid methyl ester]

Ki [2]: 1.04 ± 0.26 nM
A3/A2A [2]: 5.2
Ki [1]: 5.4 ± 0.7 nM
Structure (SMILES): CCNC(=O)C1OC(n2cnc3c(N)nc(C#CCC4CCN(C(=O)OCC(C)C)CC4)nc32)C(O)C1O (stereo not drawn) [ATL210, 4-{3-[6-amino-9-(5-ethylcarbamoyl-3,4-dihydroxy-tetrahydro-furan-2-yl)-9H-purin-2-yl]-prop-2-ynyl}-piperidine-1-carboxylic acid isobutyl ester]

selectivity for the mouse A2A over the A3 receptor [2]: 12 fold
Ki [2]: 1.58 ± 0.48 nM
A3/A2A [2]: 12.2
Ki [1]: 19.3 ± 3.3 nM
Structure (SMILES): COC(=O)N1CCC(CC#Cc2nc(N)c3ncn(C4OC(C(=O)NC5CC5)C(O)C4O)c3n2)CC1 (stereo not drawn) [ATL313, 4-{3-[6-amino-9-(5-cyclopropylcarbamoyl-3,4-dihydroxy-tetrahydro-furan-2-yl)-9H-purin-2-yl]-prop-2-ynyl}-piperidine-1-carboxylic acid methyl ester]
protection from contusive injury in Rag1 KO mice compared to Rag1 KO vehicle [3]: no evidence of additional protection
affinity and selectivity for human A2A receptor over other adenosine receptor subtypes [4]: highly selective
morphological manifestations of long-term spinal cord injury (H&E, EC) ([5]; 6 nmol/kg, day 42, FIG. 3): substantially reversed
spared myelin (EC-stained area, normalized to sham/uninjured) ([5]; 6 nmol/kg, day 42 after compression, vehicle 61.0%±3.6%): 81.9±0.9%
average ratio of spinal cord white area (injured/sham) ([5]; day 42, N=3-4, P<0.05, vehicle 61.3±3.6): 81.9±0.9
protection of locomotor function in mice lacking A2ARs on BMDC cells ([6]; KO/WT chimera or global A2AR KO, FIGS. 5B, 6): not KO/WT chimera; also recorded: not protected; also recorded: completely absent
protection of locomotor function in WT/KO chimera ([6]; WT marrow into A2AR KO recipients, FIGS. 5C, 6, 7): greatest protection
protection of locomotor function in mice with A2ARs on BMDC cells ([6]; WT, WT/WT and WT/KO mice, FIGS. 5, 6): protects WT/WT; also recorded: protected
protection from spinal cord compression injury (mBBB) ([7]; 2 nmol/kg IP, FIG. 2A): no significant protection
protection from compression injury with delayed treatment ([7]; 3 nmol/kg IP, delay 0, 5 or 20 min after SCI, two-way ANOVA, FIG. 9): significant
locomotor protection by agonist combined with antagonist ([7]; 6 nmol/kg ATL313 with equimolar ZM241385, FIG. 2D): Early blockade; also recorded: completely blocked
protection when treatment starts just after compression (onset of reperfusion) ([7]; 6 nmol/kg IP 10-15 seconds after terminating compression, compared with start before compression, FIG. 8): reduces locomotor dysfunction; also recorded: equal protection; also recorded: same reduction in SCI
mBBB score ([7]; 6 nmol/kg, day 42 after compression, same animals as myelin analysis, vehicle 5.0±1.4, FIG. 4): 11.3±0.8
optimal dose to reduce SCI (mBBB locomotor score) ([7]; IP twice daily for 4 days during and following compression, FIG. 2A): 6 nmol/kg
reversal of protection by delay of administration ([7]; delay 20 minutes, FIG. 9 legend): partially
protection from spinal cord compression injury (mBBB) ([7]; dose increased from 6 to 20 nmol/kg IP, FIG. 2A): does not produce additional protection
locomotor function (mBBB score) after spinal cord compression ([7]; 6 nmol/kg): significant and sustained increase; also recorded: improved locomotor function at all time points

Structure (SMILES): CCNC(=O)[C@H]1O[C@@H](n2cnc3c(N)nc(NCCc4ccc(CCC(=O)O)cc4)nc32)[C@H](O)[C@@H]1O [CGS21680, 2-[4-(2-carboxyethyl)phenethylamino]-5′-N-ethylcarboxamido-adenosine, reference compound]
Ki [1]: 160 ± 20 nM

Ki [1]: 16100 nM
Structure (SMILES): Nc1nc(NCCc2ccc(O)cc2)nc2nc(-c3ccco3)nn12 [ZM241385, 4-(2-[7-Amino-2-[2-furyl][1,2,4]triazolo[2,3-a][1,3,5]triazin-5-yl-amino]ethyl)phenol, reference compound]
protection from contusive injury in Rag1 KO mice compared to Rag1 KO vehicle [3]: did not significantly improve protection
protection from contusive injury in Rag1 KO mice compared to vehicle ([3]; Rag1 KO mice, compared to vehicle controls, P=0.0015): significant protection
reduction of compressive injury with delayed antagonist treatment ([7]; 6 nol/kg IP twice daily for 4 days after delay of 1, 3, 5 or 7 days, FIG. 10): Protection is maintained; also recorded: significant compared to vehicle for all delay periods
locomotor function (mBBB score) after spinal cord compression ([7]; 6 nmol/kg): improvement in locomotor function that was similar to the effect of the agonist
